Assay results as given in patent publication US20100041669A1, “4-(HETEROCYCLYL)ALKYL-N-(ARYLSULFONYL)INDOLE COMPOUNDS AND THEIR USE AS 5-HT6 LIGANDS” (priority 2007, published 2010).
Structures can show the parent of a compound that is named as a salt.

Experiments:
human 5-HT6 receptor = target: T1, human 5-HT6 receptor (Homo sapiens, UniProt P50406); experiment: Binding assay for human 5-HT6 receptor ([3H]LSD radioligand); details: human recombinant receptor, [3H]LSD 1.5 nM, 60 minutes at 37° C.; read-out: Radiogland binding data at 5-HT6 R (h) Ki
T1 construct: expressed in transfected cells; host or cells: HEK293
T1 sequence (P50406 whole entry): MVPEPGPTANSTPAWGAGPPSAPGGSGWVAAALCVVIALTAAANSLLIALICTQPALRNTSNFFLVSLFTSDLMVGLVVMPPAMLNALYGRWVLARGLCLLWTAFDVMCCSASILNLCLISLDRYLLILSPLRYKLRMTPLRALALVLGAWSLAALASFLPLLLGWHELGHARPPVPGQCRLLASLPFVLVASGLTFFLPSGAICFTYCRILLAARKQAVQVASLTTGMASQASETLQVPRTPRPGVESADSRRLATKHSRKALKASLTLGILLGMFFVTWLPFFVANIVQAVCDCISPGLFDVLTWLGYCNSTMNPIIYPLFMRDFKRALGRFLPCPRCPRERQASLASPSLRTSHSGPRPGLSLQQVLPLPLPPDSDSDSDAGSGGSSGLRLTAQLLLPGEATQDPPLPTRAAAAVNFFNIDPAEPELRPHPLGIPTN
Protocol: Binding Assay for Human 5-HT6 Receptor
Receptor source: Human recombinant expressed in FEK293 cells
Radioligand: [^3H]LSD (60-80 Ci/mmol)
Final ligand concentration —[1.5 nM]
Non-specific determinant: Methiothepin mesylate —[0.1 μM]
Reference compound: Methiothepin mesylate
Positive control: Methiothepin mesylate
Reactions were carried out in 50 μM TRIS-HCl (pH 7.4) containing 10 μM MgCl2, 0.5 mM EDTA for 60 minutes at 37° C. The reaction was terminated by rapid vacuum filtration onto glass fiber filters. Radioactivity trapped onto the filters was determined and compared to control values in order to ascertain any interactions of test compound(s) with the cloned serotonin 5-HT6 binding site.

[1] = Pouzet et al. 2002; cited from earlier work
5-HT6 receptor = details: literature; cited from earlier work

Compound	Ki (human 5-HT6 receptor)	other results
CN1CCN(Cc2cccc3c2ccn3S(=O)(=O)c2ccc(Br)cc2)CC1 [Compound 2, 1-(4-Bromobenzenesulfonyl)-4-(4-methylpiperazin-1-ylmethyl)-1H-indole]	23.4 nM	–
COc1ccc(S(=O)(=O)n2ccc3c(CN4CCN(C)CC4)cccc32)cc1 [Compound 8, 1-(4-Methoxybenzenesulfonyl)-4-(4-methylpiperazin-1-ylmethyl)-1H-indole]	29.1 nM	–
CN1CCN(Cc2cccc3c2c(Br)cn3S(=O)(=O)c2ccccc2)CC1 [Compound 18, 1-Benzenesulfonyl-3-bromo-4-(4-methylpiperazin-1-ylmethyl)-1H-indole]	30.2 nM	–
CC(C)c1ccc(S(=O)(=O)n2cc(Br)c3c(CN4CCN(C)CC4)cccc32)cc1 [Compound 20, 3-Bromo-1-[4-(1-Methylethyl)benzenesulfonyl]-4-(4-methylpiperazin-1-ylmethyl)-1H-indole]	278 nM	–
CN1CCN(Cc2cccc3c2c(Br)cn3S(=O)(=O)c2ccc(F)cc2)CC1 [Compound 22, 3-Bromo-1-(4-fluorobenzenesulfonyl)-4-(4-methylpiperazin-1-ylmethyl)-1H-indole]	122 nM	–
CN1CCN(Cc2cccc3c2c(Br)cn3S(=O)(=O)c2cccc(Cl)c2)CC1 [Compound 24, 3-Bromo-1-(3-chlorobenzenesulfonyl)-4-(4-methylpiperazin-1-ylmethyl)-1H-indole]	75.3 nM	–
CN1CCN(Cc2cccc3c2c(Br)cn3S(=O)(=O)c2cccc3ccccc23)CC1 [Compound 25, 3-Bromo-1-(1-naphthylsulfonyl)-4-(4-methylpiperazin-1-ylmethyl)-1H-indole]	97.6 nM	–
CN1CCN(Cc2cccc3c2c(Cl)cn3S(=O)(=O)c2ccccc2)CC1 [Compound 27, 3-Chloro-1-benzenesulfonyl-4-(4-methylpiperazin-1-ylmethyl)-1H-indole]	53.6 nM	–
CC(C)c1ccc(S(=O)(=O)n2cc(Cl)c3c(CN4CCN(C)CC4)cccc32)cc1 [Compound 28, 3-Chloro-1-[4-(1-methylethyl)benzenesulfonyl]-4-(4-methylpiperazin-1-ylmethyl)-1H-indole]	99.7 nM	–
Cc1ccc(S(=O)(=O)n2cc(Cl)c3c(CN4CCN(C)CC4)cccc32)cc1 [Compound 29, 3-Chloro-1-(4-methylbenzenesulfonyl)-4-(4-methylpiperazin-1-ylmethyl)-1H-indole]	222 nM	–
CN1CCN(Cc2cccc3c2c(Cl)cn3S(=O)(=O)c2ccccc2Br)CC1 [Compound 30, 3-Chloro-1-(2-bromobenzenesulfonyl)-4-(4-methylpiperazin-1-ylmethyl)-1H-indole]	90.7 nM	–
CN1CCN(Cc2cccc3c2c(Cl)cn3S(=O)(=O)c2cccc(Cl)c2)CC1 [Compound 33, 3-Chloro-1-(3-chlorobenzenesulfonyl)-4-(4-methylpiperazin-1-ylmethyl)-1H-indole]	27.1 nM	–
CN1CCN(Cc2cccc3c2c(Cl)cn3S(=O)(=O)c2cccc3ccccc23)CC1 [Compound 34, 3-Chloro-1-(1-naphthylsulfonyl)-4-(4-methylpiperazin-1-ylmethyl)-1H-indole]	165 nM	–
COc1ccc(NS(=O)(=O)c2sc3ccc(Cl)cc3c2C)cc1N1CCNCC1 [SB-271046, 5-Chloro-N-(4-methoxy-3-piperazin-1-ylphenyl)-3-methyl-2-benzothiophenesulfonamide]	–	activity in animal tests related to positive or negative symptoms of schizophrenia [1]: inactive
CN(C)CCC=C1c2ccccc2CCc2ccccc21 [amitriptyline]	–	affinity for the 5-HT6 receptor (5-HT6 receptor): high affinity
CN1CCN2c3ccccc3Cc3ccccc3C2C1 (stereo not drawn) [mianserin]	–	affinity for the 5-HT6 receptor (5-HT6 receptor): high affinity

More lines, main results first:

Ki (human 5-HT6 receptor)	Compound	other results
6.51 nM	CN1CCN(Cc2cccc3c2ccn3S(=O)(=O)c2ccccc2)CC1 [Compound 1, 1-Benzenesulfonyl-4-(4-methylpiperazin-1-ylmethyl)-1H-indole]	–
8.58 nM	COc1ccc(S(=O)(=O)n2ccc3c(CN4CCN(C)CC4)cccc32)c(Br)c1 [Compound 3, 1-(2-Bromo-4-methoxybenzenesulfonyl)-4-(4-methylpiperazin-1-ylmethyl)-1H-indole]	–
11.1 nM	CC(C)c1ccc(S(=O)(=O)n2ccc3c(CN4CCN(C)CC4)cccc32)cc1 [Compound 4, 1-[4-(1-Methylethyl)benzenesulfonyl]-4-(4-methylpiperazin-1-ylmethyl)-1H-indole]	–
7.92 nM	Cc1ccc(S(=O)(=O)n2ccc3c(CN4CCN(C)CC4)cccc32)cc1 [Compound 5, 1-(4-Methylbenzenesulfonyl)-4-(4-methylpiperazin-1-ylmethyl)-1H-indole]	–
1.43 nM	CN1CCN(Cc2cccc3c2ccn3S(=O)(=O)c2ccccc2Br)CC1 [Compound 6, 1-(2-Bromobenzenesulfonyl)-4-(4-methylpiperazin-1-ylmethyl)-1H-indole]	–
9.89 nM	CN1CCN(Cc2cccc3c2ccn3S(=O)(=O)c2ccc(F)cc2)CC1 [Compound 7, 1-(4-Fluorobenzenesulfonyl)-4-(4-methylpiperazin-1-ylmethyl)-1H-indole]	–
0.94 nM	O=S(=O)(c1ccccc1Br)n1ccc2c(CN3CCNCC3)cccc21 [Compound 36, 1-(2-Bromobenzenesulfonyl)-4-(piperazin-1-ylmethyl)-1H-indole dihydrochloride]	–
7.84 nM	O=S(=O)(c1ccccc1)n1ccc2c(CN3CCNCC3)cccc21 [Compound 37, 1-Benzenesulfonyl-4-(piperazin-1-ylmethyl)-1H-indole dihydrochloride]	–
10.7 nM	Cc1ccc(S(=O)(=O)n2ccc3c(CN4CCNCC4)cccc32)cc1 [Compound 38, 1-(4-Methylbenzenesulfonyl-4-(piperazin-1-ylmethyl)-1H-indoledihydrochloride]	–
4.82 nM	CN1CCN(Cc2cccc3c2ccn3S(=O)(=O)c2cccc3ccccc23)CC1 [Compound 39, 1-Naphthylsulfonyl-4-(4-methylpiperazin-1-ylmethyl)-1H-indole]	–
13.1 nM	CN1CCN(Cc2cccc3c2ccn3S(=O)(=O)c2cccc(Cl)c2)CC1 [Compound 41, 1-(3-chlorobenzenesulfonyl)-4-(4-methylpiperazin-1-ylmethyl)-1H-indole]	–
